Source: US5342834A, “Method for androgen supplementation” (priority 1992, dated 1994)
“Also recorded” adds a separate entry of the source.

Key:
[1] = background statement; cited from earlier work
[2] = Metabolism (decrease of steroid level) in incubation with rat liver cytosol; format: in vitro ADME; settings: for remaining at 2 h: 2h incubation, read-out: steroid remaining unmetabolized / recovered
Experimental: (§1) To prepare rat liver microsomes and cytosol, thawed livers were homogenized in 4 vol. of TED buffer (10mM Tricine, 1.5 mM EDTA, 1 mM dithiothreitol, pH 7.4) using a glass homogenizer and a loosefitting Teflon piston for nine strokes with intermittent cooling. This and all subsequent steps were performed at 4° C. The homogenate was spun at 13000×g for 30 min in a Sorvall refrigerated centrifuge. The supernatant fraction was recentrifuged at 13000×g for another 30 min. The resulting supernatant fraction (13K supernatant) was centrifuged at 105,000×g using a Beckman Ultracentrifuge (Model L) for 60 min. The 105K supernatant (cytosol) was saved. The microsomal pellet was resuspended in TED buffer, and spun down again at 105,000×g. The resulting pellet is known as the 105K pellet of the microsome fraction (or "microsome") .
(§2) Incubation mixtures consisted of 52 nmol of unlabeled steroid (T, 7MNT or 19NT), approximately 40,000 CPM of the corresponding tritiated steroid and 5 umol of NADPH in 0.2 ml TED buffer (pH 7.4). This was incubated for 10 min at 37° C. in a constant temperature water bath. Reaction was initiated by the addition of 0.8 ml of either 13K supernatant, microsomes or cytosol, containing 7.05, 0.62 or 5.64 mg/ml of protein, respectively. Incubations were quenched with 2 ml of ethyl acetate, vortexed briefly, and frozen in a dry ice-alcohol bath. The ethyl acetate was separated from the frozen aqueous phase. Extraction was performed again in the same way. The combined organic phase was evaporated and the remaining steroids were analyzed.
The procedure used for the cytosol preparations was the same as that for microsomes, except that incubations were carried out for 90 min.
(§3) For isolation of radioactive metabolites, the procedure was the same as for unlabeled metabolites, except that each tube contained 50,000 CPM of ^3 H-labeled 7MNT.
(§4) In this series of experiments, the decreases in the levels of testosterone,19-nortestosterone, and 7MNT were followed over a two-hour period of incubation with microsomal or cytosolic fractions of rat liver. […] Catabolism of 19NT was maximum at 30 min, with no further change beyond that, leaving a persistent unmetabolized residue of about 20 percent of the added steroid. After 30 min of incubation, 85 percent of the 7MNT remained unaltered; forty percent of the 7MNT was recovered after 2h.

[3] = Non-androgenic (e.g. progestational) activity
[4] = Metabolism (5α reduction) of 3H-androgens by rat epididymis; format: in vitro ADME; settings: for metabolised: rat, epididymis homogenate, pH 7.4, androgen = 100%, read-out: Conversion of 5α reduced metabolites: Diols
Experimental: The metabolism of T, 19NT and 7MNT by rat epididymis was also studied. Collected epididymides were processed as described for prostate. Incubations were performed in Tricine-buffer pH 7.4 as used for liver incubations. Thin layer chromatography of metabolic mixtures and standards was performed as described for prostate preparations.

[5] = Metabolism (5α reduction) of 3H-androgens by rat ventral prostate homogenate; format: in vitro ADME; settings: for metabolism / 5α reduction in prostate (in words): prostate homogenate; for metabolised at 0.5 h: rat, ventral prostate homogenate, ventral prostate, androgen = 100%, 30 min incubation, read-out: Conversion of 5α reduced metabolites: 5α-dihydro-steroid
Experimental: To study metabolism in rat prostate, ventral prostates (1 g) were collected in ice-cold saline. All subsequent operations were carried out at 0°-4° C. The tissues were washed three times with homogenizing buffer (50 mM tris, 1.5 mM EDTA, 1 mM dithiothreitol and 10% glycerol, pH 7.5) and then homogenized in 4 vol. of the same buffer using an Ultra-turrax at a setting of 6. The prostates were given three 10 seconds bursts with intermittent cooling. The resulting homogenate was passed through four layers of cheesecloth and the filtrate was collected.
Incubation mixtures consisted of 50 nmol of unlabeled steroid, 40,000 CPM of the corresponding tritiated steroid and 1 μmol of NADPH in 0.2 ml of the buffer. The mixture was equilibrated for 10 min at 37° C. Reaction was started by adding 0.8 ml of homogenate (5.3 mg/ml protein). After 30 min of incubation, the mixture was cochromatographed with authentic steroids selected as possible metabolites.

[6] = Metabolism (decrease of steroid level) in incubation with rat liver microsomes; format: in vitro ADME
Experimental: as §1, §2
In preparation for the isolation and identification of unlabelled steroid metabolites in the microsome preparations, 360 μg of 7MNT were dispensed into 24 tubes in parallel with identical tubes containing ^3 H-labeled 7MNT to be used as marker steroid. The mixtures were incubated for 60 min at 37° C., extracted twice with 2 ml of ethyl acetate, taken to dryness, redissolved in a mixture of dichloromethane/methanol (1:1, v/v) and quantitatively applied to silica gel coated TLC plates along with synthetically prepared suspected metabolites of radioactive 7MNT in a parallel lane. The plates were developed with chloroform/methanol (95:5, v/v). Spots corresponding to the radioactive marked spots were eluted with ethyl acetate and taken to dryness.
as §3, §4

[7] = Metabolism by rat liver 13K supernatant fraction; format: in vitro ADME; settings: 30 min, 37° C., system enriched with NADPH
Experimental: as §1
Incubation mixtures consisted of 52 nmol of unlabeled steroid (T, 7MNT or 19NT), approximately 40,000 CPM of the corresponding tritiated steroid and 5 umol of NADPH in 0.2 ml TED buffer (pH 7.4). This was incubated for 10 min at 37° C. in a constant temperature water bath. Reaction was initiated by the addition of 0.8 ml of either 13K supernatant, microsomes or cytosol, containing 7.05, 0.62 or 5.64 mg/ml of protein, respectively. […] The combined organic phase was evaporated and the remaining steroids were analyzed. […]

Structure (SMILES): C[C@]12CCC(=O)C[C@@H]1CC[C@@H]1[C@@H]2CC[C@]2(C)[C@@H](O)CC[C@@H]12 [DHT, 5α-dihydrotestosterone]
- androgen potency versus testosterone (in words) [1]: much more potent androgen than testosterone

Structure (SMILES): C[C@@H]1CC2=CC(=O)CC[C@@H]2[C@H]2CC[C@]3(C)[C@@H](O)CC[C@H]3[C@@H]21 [7MNT, 7α-methyl-19-nortestosterone]
- metabolism in cytosol (in words) [2]: Half of the starting 7MNT was recovered after 2h incubation; also recorded: generated at least one metabolite that was more polar than the parent compound
- non-androgenic activity (in words) [3]: lack of significant non-androgenic activity
- metabolism / 5α reduction in epididymis (in words) [4]: substantially no 5α-dihydro product was formed in either tissue; also recorded: epididymis did not reduce or otherwise metabolize 7MNT
- metabolism / 5α reduction in prostate (in words) [5]: substantially no 5α-dihydro product was formed in either tissue; also recorded: remained unmetabolized; also recorded: did not reduce or otherwise metabolize 7MNT; also recorded: not converted to the 5α-dihydro product
- metabolism in microsomes (in words) [6]: After 30 min of incubation, most of the 7MNT was retrieved unaltered; also recorded: Two significant 7α-methylated metabolites were observed: a less polar one representing the 3,17-dione, and a more polar one in the region of the diols or triols; also recorded: An additional quantitatively minor polar metabolite was also detected
- remaining at 0.5 h ([6]; after 30 min of incubation, read-out: steroid remaining unaltered): 85%
- steroid recovered ([6]; after 2h): forty
- metabolism by 13K supernatant (in words) [7]: relatively resistant to metabolism under these incubation conditions; also recorded: Two metabolites, tentatively identified as 7α-methyl-5β-estrane-3, 17β-diol and 7α-methyl-estr-4-ene-3, 17-dione were found; also recorded: A minor highly polar metabolite was also observed
- androgen potency (in words) (Androgenic potency): high potency

Structure (SMILES): C[C@]12CC[C@H]3[C@@H](CCC4=CC(=O)CC[C@@]43C)[C@@H]1CC[C@@H]2O [T, testosterone]
- remaining at 2 h [2]: ~12%
- metabolism / 5α reduction in epididymis (in words) [4]: converted to their respective reduced A ring metabolites
- metabolised [4]: 86%
- metabolism / 5α reduction in prostate (in words) [5]: nearly half of the added T was reduced to 5α-DHT
- metabolised at 0.5 h [5]: 48%
- metabolism in microsomes (in words) [6]: completely metabolized by the microsomes before the earliest aliquot was taken
- time before which steroid was completely metabolized ([6]; earliest aliquot taken at 15 min): < 15 min

Structure (SMILES): C[C@]12CC[C@H]3[C@@H](CCC4=CC(=O)CC[C@@H]43)[C@@H]1CC[C@@H]2O [19NT, 19-nortestosterone]
- metabolism in cytosol (in words) [2]: still slower
- remaining at 2 h [2]: 40%
- metabolism / 5α reduction in epididymis (in words) [4]: converted to their respective reduced A ring metabolites; also recorded: metabolized more slowly than T
- metabolised [4]: 57%
- metabolism / 5α reduction in prostate (in words) [5]: metabolized to the reduced product more slowly than testosterone
- metabolised at 0.5 h [5]: 22%
- metabolism in microsomes (in words) [6]: qualitatively similar to that of T, though slower
- persistent unmetabolized residue of the added steroid ([6]; beyond 30 min of two-hour incubation): about 20%
- time of maximum catabolism ([6]; two-hour incubation): 30 min
